How the values were obtained:
Details in all cases: incubation time: 72 h
MCF-10A [1] = experiment: normalised response (% of control), CellTiter-Glo; higher = more viable cells (100 = DMSO, 0 = benzethonium chloride kill control)
Method in brief: (§1)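 Plates were normalised with 0.1 % DMSO as 100 and a positive kill control as 0. Breast cancer cell lines in 20 µl suspension had been seeded into 384-well plates with compound at 5 concentrations in 10-fold steps over a compound-specific 10,000-fold range, incubated 72 h, and read for CellTox Green fluorescence (485/520 nm) followed by CellTiter-Glo luminescence. Each value is the normalised signal at a single concentration.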

CAL-51 [2] = experiment: as above
Method in brief: as §1

CAL-120 [3] = experiment: as above
Method in brief: as §1

HDQ-P1 [4] = experiment: as above
Method in brief: as §1

HCC1143 [5] = experiment: as above
Method in brief: as §1

BT-474 [6] = experiment: as above
Method in brief: as §1

MDA-MB-453 [7] = experiment: as above
Method in brief: as §1

BT-549 [8] = experiment: as above
Method in brief: as §1

CAL-85-1 [9] = experiment: as above
Method in brief: as §1

MDA-MB-231 [10] = experiment: as above
Method in brief: as §1

HCC1937 [11] = experiment: as above
Method in brief: as §1

MFM-223 [12] = experiment: as above
Method in brief: as §1

Hs578T [13] = experiment: as above
Method in brief: as §1

MDA-MB-468 [14] = experiment: as above
Method in brief: as §1

HCC1599 [15] = experiment: as above
Method in brief: as §1

DU-4475 [16] = experiment: as above
Method in brief: as §1

MDA-MB-436 [17] = experiment: as above
Method in brief: as §1

CAL-148 [18] = experiment: as above
Method in brief: as §1

SK-BR-3 = experiment: as above
Method in brief: as §1

MCF-10A [19] = experiment: normalised response (% of control), CellTox Green; higher = less cell death (100 = DMSO, 0 = benzethonium chloride kill control)
Method in brief: as §1

CAL-51 [20] = experiment: as above
Method in brief: as §1

CAL-120 [21] = experiment: as above
Method in brief: as §1

HDQ-P1 [22] = experiment: as above
Method in brief: as §1

HCC1143 [23] = experiment: as above
Method in brief: as §1

BT-474 [24] = experiment: as above
Method in brief: as §1

MDA-MB-453 [25] = experiment: as above
Method in brief: as §1

BT-549 [26] = experiment: as above
Method in brief: as §1

CAL-85-1 [27] = experiment: as above
Method in brief: as §1

MDA-MB-231 [28] = experiment: as above
Method in brief: as §1

HCC1937 [29] = experiment: as above
Method in brief: as §1

MFM-223 [30] = experiment: as above
Method in brief: as §1

Hs578T [31] = experiment: as above
Method in brief: as §1

MDA-MB-468 [32] = experiment: as above
Method in brief: as §1

HCC1599 [33] = experiment: as above
Method in brief: as §1

DU-4475 [34] = experiment: as above
Method in brief: as §1

MDA-MB-436 [35] = experiment: as above
Method in brief: as §1

CAL-148 [36] = experiment: as above
Method in brief: as §1

| SMILES | normalised response (MCF-10A [1]) | normalised response (CAL-51 [2]) | normalised response (CAL-120 [3]) | normalised response (HDQ-P1 [4]) | normalised response (HCC1143 [5]) | normalised response (BT-474 [6]) | normalised response (MDA-MB-453 [7]) | normalised response (BT-549 [8]) | normalised response (CAL-85-1 [9]) | normalised response (MDA-MB-231 [10]) | normalised response (HCC1937 [11]) | normalised response (MFM-223 [12]) | normalised response (Hs578T [13]) | normalised response (MDA-MB-468 [14]) | normalised response (HCC1599 [15]) | normalised response (DU-4475 [16]) | normalised response (MDA-MB-436 [17]) | normalised response (CAL-148 [18]) | normalised response (SK-BR-3) | normalised response (MCF-10A [19]) | normalised response (CAL-51 [20]) | normalised response (CAL-120 [21]) | normalised response (HDQ-P1 [22]) | normalised response (HCC1143 [23]) | normalised response (BT-474 [24]) | normalised response (MDA-MB-453 [25]) | normalised response (BT-549 [26]) | normalised response (CAL-85-1 [27]) | normalised response (MDA-MB-231 [28]) | normalised response (HCC1937 [29]) | normalised response (MFM-223 [30]) | normalised response (Hs578T [31]) | normalised response (MDA-MB-468 [32]) | normalised response (HCC1599 [33]) | normalised response (DU-4475 [34]) | normalised response (MDA-MB-436 [35]) | normalised response (CAL-148 [36]) |
| --- | --- | --- | --- | --- | --- | --- | --- | --- | --- | --- | --- | --- | --- | --- | --- | --- | --- | --- | --- | --- | --- | --- | --- | --- | --- | --- | --- | --- | --- | --- | --- | --- | --- | --- | --- | --- | --- |
| COc1cc(CCc2cc(NC(=O)c3ccc(N4CC(C)NC(C)C4)cc3)n[nH]2)cc(OC)c1 (stereo unspecified) [AZD4547] (10 nM) | 90.3% | 111% | 95.8% | 98.9% | 99.3% | 106% | 95.7% | 98.4% | 103% | 96.4% | 94.8% | 70.8% | 89.8% | 98.3% | 104% | 88.8% | 105% | 99.5% | 92.3% | 79.9% | 95% | 102% | 104% | 91.2% | 95.9% | 104% | 106% | 99.2% | 94.2% | 82.4% | 92.8% | 103% | 158% | 93.9% | 98.2% | 55.9% | 51.3% |
| CCC/C=C/C=C/C(=O)O[C@H]1/C(=C/C(=O)OC)C[C@H]2C[C@H]([C@@H](C)O)OC(=O)C[C@H](O)C[C@@H]3C[C@H](OC(C)=O)C(C)(C)[C@](O)(C[C@@H]4C/C(=C/C(=O)OC)C[C@H](/C=C/C(C)(C)[C@]1(O)O2)O4)O3 [Bryostatin 1] (1 nM) | 107% | 58% | 103% | 88.6% | 102% | 92.3% | 103% | 101% | 95.5% | 95.9% | 93% | 104% | 79.6% | 99.8% | 99.3% | 91.6% | 102% | 116% | 66.2% | 98.5% | 91% | 103% | 75.6% | 117% | 86.8% | 94.6% | 111% | 97.7% | 113% | 123% | 104% | 94% | 105% | 111% | 106% | 100% | 111% |
| Cc1nc(Nc2ncc(C(=O)Nc3c(C)cccc3Cl)s2)cc(N2CCN(CCO)CC2)n1 [Dasatinib] (10 nM) | 71.5% | 82% | 93.7% | 74.8% | 90.2% | 74.5% | 99.5% | 97.2% | 95.7% | 70.6% | 90.5% | 95% | 94.3% | 92.2% | 94.3% | 99.4% | 97.1% | 99.2% | 101% | 58.3% | 86.6% | 100% | 96.7% | 56.7% | 102% | 106% | 111% | 102% | 84.2% | 93.1% | 98.9% | 84.7% | 107% | 97.7% | 110% | 98% | 93.9% |
| C[C@]12O[C@H](C[C@]1(O)CO)n1c3ccccc3c3c4c(c5c6ccccc6n2c5c31)CNC4=O [Lestaurtinib] (10 nM) | 83.7% | 103% | 92.2% | 102% | 105% | 98.8% | 81.1% | 109% | 102% | 101% | 94.3% | 97.2% | 90.2% | 78.7% | 96.9% | 98% | 93.8% | 107% | 82.4% | 91.2% | 98.4% | 97.4% | 104% | 50.3% | 99.3% | 101% | 100% | 96.2% | 97.3% | 103% | 103% | 108% | 60% | 90.6% | 94.2% | 78.8% | 87.7% |
| c1cc(CN2CCCNCCNCCCNCC2)ccc1CN1CCCNCCNCCCNCC1 [Plerixafor] (100 nM) | 79.7% | 67.7% | 100% | 103% | 104% | 98.8% | 83% | 109% | 101% | 97.1% | 96.6% | 85.1% | 94.8% | 97.6% | 95.3% | 88.1% | 92% | 89.8% | 84.1% | 97.7% | 59.6% | 93.5% | 101% | 95.1% | 85.5% | 91.3% | 95.9% | 92.5% | 96.5% | 73.9% | 50.4% | 99.3% | 89.8% | 88.9% | 91.7% | 74.2% | 94.4% |
| C[C@]12C=CC(=O)C=C1CC[C@@H]1[C@@H]2[C@@H](O)C[C@@]2(C)[C@H]1CC[C@]2(O)C(=O)CO [Prednisolone] (100 nM) | 102% | 112% | 87.4% | 89.3% | 102% | 146% | 95% | 96% | 109% | 146% | 103% | 110% | 113% | 109% | 105% | 106% | 101% | 114% | 104% | 95.5% | 117% | 102% | 106% | 118% | 101% | 104% | 97.2% | 85.8% | 134% | 115% | 96.1% | 110% | 108% | 103% | 98.8% | 89.9% | 103% |
| Cn1cc(CNCC2CCN(c3ncc(C(=O)NO)cn3)CC2)c2ccccc21 [Quisinostat] (10 nM) | 78.8% | 99.2% | 86.2% | 75.4% | 75.8% | 106% | 56.9% | 88% | 72.5% | 103% | 85.2% | 103% | 85.7% | 91.2% | 89.8% | 83.9% | 87.2% | 87.6% | 70.1% | 96.7% | 126% | 91.4% | 109% | 114% | 93% | 97.7% | 95.5% | 77.9% | 101% | 114% | 103% | 88.8% | 57.7% | 104% | 97.8% | 92.3% | 95.8% |
| CNC(=O)c1cc(Oc2ccc(NC(=O)Nc3ccc(Cl)c(C(F)(F)F)c3)cc2)ccn1 [Sorafenib] (10 nM) | 108% | 95.9% | 112% | 107% | 102% | 97.8% | 100% | 108% | 102% | 105% | 95.2% | 106% | 98.8% | 115% | 108% | 101% | 105% | 107% | 103% | 66.7% | 106% | 96% | 107% | 95.9% | 99.3% | 106% | 108% | 102% | 108% | 66.5% | 101% | 95% | 97.8% | 91.9% | 98.4% | 103% | 103% |
